Results taken from US9700572B2, “Anti-cancer agent” (priority 2012, dated 2017).

Experiments:
[1] = cited from earlier work
[2] = system: pancreas cancer cell Capan-1; test: Test Example 9: PI staining (dead cell staining), FACS; type: cell-based, human; conditions: 24 hours
Experimental: (§1) For preparation of the glucose-containing medium, 4.75 g of Dulbecco's modified Eagle medium 2 (Nissui Pharmaceutical) was dissolved in water, added by 12.5 ml of 1M HEPES pH 7.4 (DOJINDO LABORATORIES, 342-01375), sterilized, added by 18.5 ml of 10% NAHCO3, 10 ml of L-glutamine (Sigma-Aldrich), 5 ml of Anti-Anti (Life technologies), 5 ml of MEM NON-ESSENTIAL AMINO ACID SOLUTION (Sigma-Aldrich) and 50 ml of FETAL BOVINE SERUM (Biowest) that was inactivated in a warm bath at 56° C. for 30 minutes, and finally filled up to 500 ml. The glucose inhibition medium was prepared by adding 2-Deoxy-Glucose (2-DG) (Tokyo Chemical industry) in 15 mM of final concentration to the glucose-containing medium. The medium containing 4 μM arctigenin was prepared by adding arctigenin ([…] Pharmaceutical) in 4 μM of final concentration to the glucose-containing medium or the glucose inhibition medium. The pancreas cancer cell Capan-1 (ATCC No. HTB-79) was seeded in a glucose-containing medium, incubated overnight and then incubated in each of a glucose-containing medium, a glucose inhibition medium, a glucose-containing medium containing 4 μM arctigenin and a glucose inhibition medium containing 4 μM arctigenin, or in 7 μM cisplatin (CDDP: Wako Pure Chemical Industries) for 24 hours. After collected cells, PI staining (dead cell staining) and cancer stem cell marker staining were carried out according to the usual method and an Analysis was carried out using flow cytometry (FACS). For the marker, triple positive of CD44, CD24 and ESA (CD326) which was reported as a stern cell marker of pancreas cancer was used.

[3] = system: CD44+ESA+CD24+ pancreas cancer stem cell (Capan-1); test: Test Example 9: cancer stem cell marker staining (CD44, CD24, ESA), FACS; type: cell-based, human
Experimental: as §1

[4] = system: pancreas cancer cell PANC-1; test: Test Example 8: PI staining (dead cell staining), FACS; type: cell-based, human; conditions: 3 μM arctigenin
Experimental: (§2) For preparation of the glucose-containing medium, 4.75 g of Dulbecco's modified Eagle medium 2 (Nissui Pharmaceutical) was dissolved in water, added by 12.5 ml of 1M HEPES pH 7.4 (DOJINDO LABORATORIES, 342-01375), sterilized, added by 18.5 ml of 10% NAHCO3, 10 ml of L-glutamine (Sigma-Aldrich), 5 ml of Anti-Anti (Life technologies), 5 ml of MEM NON-ESSENTIAL AMINO ACID SOLUTION (Sigma-Aldrich) and 50 ml of FETAL BOVINE SERUM (Biowest) that was inactivated in a warm bath at 56° C. for 30 minutes, and finally filled up to 500 ml. The glucose inhibition medium was prepared by adding 2-Deoxy-Glucose (2-DG) (Tokyo Chemical Industry) in 20 mM of final concentration to the glucose-containing medium. The medium containing 3 μM arctigenin was prepared by adding arctigenin ([…] Pharmaceutical) in 3 μM of final concentration to the glucose-containing medium or the glucose inhibition medium. For preparation of FACS buffer, 10 g of Bovine serum albumin Protease free (Wako Pure Chemical industries) was dissolved in 1 L of PBS (-), added by sodium azide in 0.1% of final concentration and performed filtration sterilization. The pancreas cancer cell PANC-1 (ATCC No CRL-1469 was seeded in a glucose-containing medium, incubated overnight and then incubated in each of the glucose-containing medium, the glucose inhibition medium, the glucose-containing medium containing 3 μM arctigenin and the glucose inhibition medium containing 3 μM arctigenin for 24 hours. After collected cells, PI staining (dead cell staining) and cancer stem cell marker staining were carried out according to the usual method and an Analysis was carried out using flow cytometry (FACS). For a marker, triple positive of CD44, CD24 and ESA (CD326) or double positive of CD44 positive and c-Met strong positive which were reported as a stem cell marker of pancreas cancer were used.

[5] = system: human pancreas cancer cell line PSN-1; test: Test Example 6: antitumor evaluation in tumor model animal (PSN-1 Xenografts); type: in vivo, nude mouse; conditions: 50 μg per mouse orally five times a week; one month; FIG. 5
Experimental: (§3) The model animal of a tumor was made by seeding human pancreas cancer cell line CAPAN-1 or PSN-1 in subcutis of back of a nude mouse (BALB-cAJnu/nu; CLEA Japan, Inc.) as a donor and transplanting the tumor mass of the provided donor mouse into subcutis of back of a recipient mouse, Arctigenin (AG), arctiin (A) and the burdock fruit extract (Example 12) were dissolved in DMSO in concentration of 10 mg/ml, diluted with a saline, and then administered orally in stomach at 50 μg per one mouse five times a week. The anticancerous was evaluated by measuring the size of the subcutaneous tumor mass of the back with time.

[6] = system: CD44+ESA+CD24+ pancreas cancer stem cell (PANC-1); test: Test Example 8: cancer stem cell marker staining (CD44, CD24, ESA), FACS; type: cell-based, human; conditions: 3 μM arctigenin
Experimental: as §2, with “sterilization. For the fluorescence-labeled antibody for FACS assays, CD44 (338803 or 338807, BioLegend), CD24 (311117, BioLegend), ESA (324205, BioLegend) and c-[…]-8858, eBioscience) were used. In addition, a staining step was carried out according to the attached data sheet to the product.” for “sterilization.”

[7] = system: human pancreas cancer cell line CAPAN-1; test: Test Example 6: antitumor evaluation in tumor model animal (CAPAN-1 Xenografts); type: in vivo, nude mouse; conditions: 50 μg per mouse orally five times a week; one month; FIG. 4
Experimental: as §3

[8] = system: CD44+,c-MetHigh pancreas cancer stem cell (PANC-1); test: Test Example 8: cancer stem cell marker staining (CD44, c-Met), FACS; type: cell-based, human; conditions: 3 μM arctigenin
Experimental: as §2, with “sterilization. For the fluorescence-labeled antibody for FACS assays, CD44 (338803 or 338807, BioLegend), CD24 (311117, BioLegend), ESA (324205, BioLegend) and c-[…]-8858, eBioscience) were used. In addition, a staining step was carried out according to the attached data sheet to the product.” for “sterilization.”

[9] = system: pancreas cancer cell line PANC-1; conditions: PANC-1 screening; cited from earlier work

For `COc1ccc(C[C@H]2COC(=O)[C@@H]2Cc2ccc(O[C@@H]3O[C@H](CO)[C@@H](O)[C@H](O)[C@H]3O)c(OC)c2)cc1OC` [arctiin], which solubility in water [1] is on record?
The solubility in water was “hardly soluble”.

For `N.N.[Cl][Pt][Cl]` [cisplatin, reference compound], which “cellular survival rate (PI staining)” value ([2]; 7 μM cisplatin) is on record?
Its value is 58.08%.

And the “number of the survival of CD44+ESA+CD24+ cell” value ([3]; 7 μM cisplatin treatment)?
Its value is 88.

What about the “ratio of CD44+ESA+CD24+ cell analyzed in viable cells” value ([3]; 7 μM cisplatin treatment) of the same compound?
The value was 2.02%.

And the “ratio of CD44+ESA+CD24+ cell in all analyzed cells” value ([3]; 7 μM cisplatin treatment)?
Its value is 1.17%.

Which results are given for `COc1cc(C[C@H]2C(=O)OC[C@@H]2Cc2ccc(OC)c(OC)c2)ccc1O` [arctigenin]?
cellular survival rate (PI staining) ([4]; glucose inhibition condition (20 mM 2-DG), 24 hours, FIG. 6, without arctigenin 68.53%): 35.71%; cellular survival rate (PI staining) ([4]; glucose inhibition condition, FIG. 7, without arctigenin 88.80%): 27.50%; cellular survival rate (PI staining) ([4]; glucose-containing condition, 24 hours, FIG. 6, without arctigenin 78.20%): 69.50%; cellular survival rate (PI staining) ([4]; glucose-containing condition, FIG. 7, without arctigenin 84.70%): 83.30%; antitumor effect (size of subcutaneous tumor mass) [5]: antitumor effect was also obtained; ratio of CD44+ESA+CD24+ cell in all analyzed cells ([6]; glucose inhibition condition, without arctigenin 6.51%): 0.98%; number of the survival of CD44+ESA+CD24+ cell ([6]; glucose inhibition condition, without arctigenin 651): 98; ratio of CD44+ESA+CD24+ cell in all analyzed cells ([6]; glucose-containing condition, without arctigenin 4.41%): 5.01%; number of the survival of CD44+ESA+CD24+ cell ([6]; glucose-containing condition, without arctigenin 441): 501; solubility in water [1]: hardly soluble; antitumor effect (size of subcutaneous tumor mass) [7]: antitumor effect was also obtained; cellular survival rate (PI staining) ([2]; 4 μM arctigenin, glucose inhibition condition (15 mM 2-DG), without arctigenin 79.10%): 48.73%; cellular survival rate (PI staining) ([2]; 4 μM arctigenin, glucose-containing condition, without arctigenin 67.57%): 72.80%; positive ratio of CD44+,c-MetHigh cell in all analyzed cells ([8]; glucose inhibition condition, without arctigenin 0.78%): 0.22%; number of the survival of CD44+,c-MetHigh cell ([8]; glucose inhibition condition, without arctigenin 47): 13; positive ratio of CD44+,c-MetHigh cell in all analyzed cells ([8]; glucose-containing condition, without arctigenin 0.63%): 0.52%; number of the survival of CD44+,c-MetHigh cell ([8]; glucose-containing condition, without arctigenin 38): 31; cancel the viability of tumor cells under undernutrition condition [9]: effective; ratio of CD44+ESA+CD24+ cell in all analyzed cells ([3]; 4 μM arctigenin, glucose inhibition condition, without arctigenin 1.40%): 0.24%; ratio of CD44+ESA+CD24+ cell analyzed in viable cells ([3]; 4 μM arctigenin, glucose inhibition condition, without arctigenin 1.77%): 0.50%; number of the survival of CD44+ESA+CD24+ cell ([3]; 4 μM arctigenin, glucose inhibition condition, without arctigenin 105): 18; ratio of CD44+ESA+CD24+ cell in all analyzed cells ([3]; 4 μM arctigenin, glucose-containing condition, without arctigenin 0.87%): 1.04%; ratio of CD44+ESA+CD24+ cell analyzed in viable cells ([3]; 4 μM arctigenin, glucose-containing condition, without arctigenin 1.28%): 1.43%; number of the survival of CD44+ESA+CD24+ cell ([3]; 4 μM arctigenin, glucose-containing condition, without arctigenin 65): 78
